{"source": "patent US20250354979A1", "about": "“DRUG EVALUATION METHOD, REAGENT, AND KIT” (FUJIFILM Corporation, priority 2023, published 2025)", "key": {"[1]": {"tested_on": "human iPS cell-derived myocardial cells", "assay": "Heart rate of myocardial cells by MEA, serum-free culture medium with isoproterenol and carbachol added", "assay_type": "cell-based", "conditions": "serum-free culture medium with 1 μmol/L isoproterenol and 3 μmol/L carbachol; cumulative drug concentrations, 20 minutes after addition; vs medium control", "description": "(§1) Example 4: Method and results of evaluating increase in heart rate by muscarinic receptor inhibitor (atropine) using serum-free culture medium to which adrenergic receptor agonist (isoproterenol) and muscarinic receptor agonist (carbachol) are added Human iPS cell-derived myocardial cells (iCell myocardial cells 2.0, manufactured by FUJIFILM Cellular Dynamics, Inc.) in a frozen state were thawed, suspended in a thawing culture medium (iCell myocardial cell thawing culture medium, manufactured by FUJIFILM Cellular Dynamics, Inc.), and then seeded at a cell density of 50,000 cells per well on a MEA plate (Cyto View MEA 48, manufactured by Axion BioSystems, Inc.). The seeding density of myocardial cells in the vicinity of the electrode was 2,725 cells/mm^2. After the plate was allowed to stand in a CO2 incubator for several hours, a maintenance culture medium (iCell myocardial cell maintenance culture medium, manufactured by FUJIFILM Cellular Dynamics, Inc.) containing serum was added, and the myocardial cells were cultured in the CO2 incubator for about one week. The culture medium was exchanged with a serum-free culture medium (a myocardial cell serum-free assay culture medium, manufactured by FUJIFILM Cellular Dynamics, Inc.) on the day before the measurement.\n(§2) On the day of measurement, the MEA plate on which human iPS cell-derived myocardial cells were cultured was placed in an MEA system (Maestro Pro, manufactured by Axion BioSystems, Inc.), 1 μmol/L of isoproterenol (manufactured by Tokyo Chemical Industry Co., Ltd.) and 3 μmol/L of carbachol (manufactured by Tokyo Chemical Industry Co., Ltd.) were added to the culture medium, and then the extracellular potential was measured after 20 minutes from the addition (medium control, atropine concentration: 0 μmol/L). Subsequently, 0.01 μmol/L of atropine (manufactured by Tokyo Chemical Industry Co., Ltd.) was added to the MEA plate, and then the extracellular potential was measured after 20 minutes from the addition. Similarly, atropine was added to give concentrations of 0.1 μmol/L and 1 μmol/L, and then the extracellular potential was measured at each concentration.\nFrom the measurement results of the extracellular potential, the interval between sharp peaks indicating depolarization of human iPS cell-derived myocardial cells was taken as the beating time (sec), and the heart rate (/min)=60/beating time (sec) was calculated. The addition of atropine was confirmed to result in an increase in heart rate of up to 51% (FIG. 7).\nIn the same manner as in Example 4, evaluation was carried out using an MEA plate on which human iPS cell-derived myocardial cells were cultured. Specifically, the same operations as in Example 4 were carried out except that atropine added in Example 4 was changed to tiotropium (manufactured by Tokyo Chemical Industry Co., Ltd.) and the concentration of tiotropium added was 1 pmol/L, 10 pmol/L, 100 pmol/L, and 1,000 pmol/L.\nIn the same manner as in Example 4, evaluation was carried out using an MEA plate on which human iPS cell-derived myocardial cells were cultured. Specifically, the same operations as in Example 4 were carried out except that atropine added in Example 4 was changed to glycopyrronium (manufactured by Tokyo Chemical Industry Co., Ltd.) and the concentration of glycopyrronium added was 0.01 nmol/L, 0.1 nmol/L, 1 nmol/L, and 10 nmol/L.\nIn the same manner as in Example 4, evaluation was carried out using an MEA plate on which human iPS cell-derived myocardial cells were cultured. Specifically, the same operations as in Example 4 were carried out except that the atropine added in Example 4 was changed to propranolol (manufactured by FUJIFILM Wako Pure Chemical Corporation) and the concentration of propranolol added was 0.1 nmol/L, 1 nmol/L, 10 nmol/L, and 100 nmol/L.\nIn the same manner as in Example 4, evaluation was carried out using an MEA plate on which human iPS cell-derived myocardial cells were cultured. […]"}, "[2]": {"tested_on": "human iPS cell-derived myocardial cells", "assay": "Heart rate of myocardial cells by MEA, serum-free culture medium with isoproterenol added", "assay_type": "cell-based", "conditions": "serum-free culture medium with 1 μmol/L isoproterenol; cumulative drug concentrations, 20 minutes after addition; vs medium control", "description": "as §1, with “1:” for “4:”, “decrease” for “increase”, “agonist (carbachol)” for “inhibitor (atropine)”, “is” for “and muscarinic receptor agonist (carbachol) are”, “2,671” for “2,725”, “The culture medium was exchanged with a serum-free culture medium (a myocardial cell serum-free assay culture medium, manufactured by FUJIFILM Cellular Dynamics, Inc.) on the day before the measurement.” left out\nas §2, with “Ltd.) was” for “Ltd.) and 3 μmol/L of carbachol (manufactured by Tokyo Chemical Industry Co., Ltd.) were”, “control, carbachol” for “control, atropine”, “of carbachol” for “of atropine”, “Similarly, carbachol” for “Similarly, atropine”, “0.1 μmol/L, 1 μmol/L,” for “0.1 μmol/L”, “and 10” for “and 1”\nFrom the measurement results of the extracellular potential, the interval between sharp peaks indicating depolarization of human iPS cell-derived myocardial cells was taken as the beating time (sec), and the heart rate (/min)=60/ beating time (sec) was calculated. […]"}}, "data": [{"smiles": "CN1[C@@H]2CC[C@H]1C[C@@H](OC(=O)C(CO)c1ccccc1)C2", "note": "(some centres unmarked) [atropine]", "values": [{"measurement": "increase in heart rate", "setting": "[1]", "result": "up to 51%"}]}, {"smiles": "C[N+](C)(C)CCOC(N)=O", "note": "[carbachol]", "values": [{"measurement": "decrease in heart rate", "setting": "[2]", "result": "up to 34%"}]}]}
